The source of these data is publication PMC6921407, “Novel coumarins active against Trypanosoma cruzi and toxicity assessment using the animal model Caenorhabditis elegans” (BMC Pharmacology & Toxicology, 2019).

The test system of series [1] is Trypanosoma cruzi epimastigotes (Tulahuen 2 strain). As to the kind of experiment: Anti-Trypanosoma cruzi activity: growth inhibition of epimastigotes (absorbance at 600 nm, day 5). The series is classed as cell-based. The conditions noted are these: T. cruzi epimastigotes; for IC50: read-out: IC50. On the procedure: Trypanosoma cruzi epimastigotes (Tulahuen 2 strain) were grown at 28 °C in an axenic milieu (BHI-Tryptose) supplemented with 5% fetal bovine serum (FBS), as previously described. Cells from a 10-day-old culture (stationary phase) were inoculated into 50 mL of fresh culture milieu to give an initial concentration of 1 × 10^6 cells per mL. Cell growth was followed by measuring the absorbance of the culture at 600 nm every day. Before inoculation, the milieu was supplemented with a given amount of the coumarin from a freshly prepared stock solution in DMSO (25 mM). The final concentration of DMSO in the culture medium never exceeded 0.4%, and the control was run in the presence of 0.4% DMSO and in the absence of drugs. […] Nifurtimox (Nfx) was used as the reference trypanocidal drug. The percentage of growth inhibition (PGI) was calculated as follows: PGI (%) = {1 - [(Ap - A0p) / (Ac - A0c)]} × 100, where Ap = […] of the culture containing the studied compound at day 5; […] = […] of the culture containing the studied compound just after addition of the inocula (day 0); Ac = […] of the culture in the absence of the studied compound (control) at day 5; […] = […] in the absence of the studied compound at day 0. […] At day 5, the absorbance of the culture was measured and related to the control.

The subject of series [2] is Caenorhabditis elegans N2 (wild type). The note with it: L1 worms exposed 30 min, survival counted 24 hours after exposure. On the procedure:
The nematode strain used was N2 (wild type), originally obtained from the Caenorhabditis Genetics Center (University of Minnesota, Twin Cities, MN, USA), which was maintained on nematode growth medium (NGM) plates seeded with Escherichia coli OP50 at 20°C. Synchronization of C. elegans cultures at the first larval stage (L1) was achieved by washing off the gravid nematodes from the plates into the centrifuge tubes, which were lysed with a bleaching mixture (1% NaOCl; 0.25 M NaOH), followed by flotation on a sucrose solution 30% (m/v) to separate the eggs from the dissolved worms and bacterial debris. The eggs were washed with M9 buffer (0.02 M KH2PO4, 0.04 M Na2HPO4, 0.08 M NaCl, and 0.001 M MgSO4) and allowed to hatch overnight (16 hours) in NGM agar plates without bacteria. After 16 hours it was obtained worms at L1 stage. Then, 1.500 L1 worms were exposed for 30 minutes at 20°C, by constant agitation in a rotator, at crescent doses ranging from 25 to 100 mM of coumarins in a 0.5% NaCl liquid media. Stock solutions of coumarins were made in DMSO, therefore worms treated with 0.5% NaCl and 0.5% DMSO were used as controls. After exposure, worms were washed 3 times with 0.5% NaCl to remove the treatments. Finally, worms were transferred to NGM recovery plates inoculated with Escherichia coli (OP50) for posterior assays.
The LD50 of coumarins was determined in C. elegans after exposure. The worms were washed three times with NaCl buffer and placed on OP50-seeded NGM plates. The number of surviving worms on each plate was verified 24 hours after exposure. The lethality data was normalized with the controls and presented as a percentage. All the coumarins were tested in three independent experiments with each concentration tested in two replicates within each experiment.

A further series relates to C. elegans. Also noted: method as in PMID 23727123. The conditions noted are these: for the worm; cited from earlier work.
The next series deals with T. cruzi. Also noted: method as in doi:10.1351/pac200173030617. The conditions noted are these: proposed mechanism glyceraldehyde 3-phosphate dehydrogenase inhibition; cited from earlier work.
The subject of series [3] is Trypanosoma cruzi epimastigotes (Tulahuen 2 strain). Also noted: method as in PMID 19811923. The conditions noted are these: in vitro, epimastigote form of T. cruzi; cited from earlier work.
Series [4] deals with Caenorhabditis elegans N2 (wild type). Kind of series: Body area (worm development) of C. elegans after acute exposure. It counts as in vivo. The conditions noted are these: 30 min exposure, measured 48 hours after exposure; tested 25 to 100 mM; ANOVA/Bonferroni. On the procedure: For the evaluation of body area, 48 hours after exposure the adult worms (20 nematodes per treatment) were photographed and their body contour was measured. For this, the NGM plates were washed with distilled water and the resulting solution was transferred to a centrifuge tube, where the worm was allowed to settle, separating it from the bacteria in suspension. The process was repeated until the solution became clear. […] The pictures were acquired from 20 worms per treatment, which were manually contoured and measured with AxioVision software LE version 4.8.2.0 for Windows.

In a further series the test system is Trypanosoma cruzi. Also noted: method as in PMID 24340110. The note with it: cited from earlier work.
Setting [5] is: Trypanosoma cruzi, TULAHUEN, 120 h.

As usually defined, the IC50 is the concentration needed to halve the response being measured. In general, EC50 refers to the midpoint of the concentration-response curve.

Where “and” joins values, the source holds several entries; their conditions need not be identical. Identical values can stand only once. Like-named read-outs stand apart in the source and are kept apart here.

On to `Cc1ccc2oc(=O)cc(CN(C)c3ccccc3)c2c1` [10g], for which the values for the IC50 in series [1] and in series [1] (setting [5]) were 8.9 µM and < 10 µM, respectively. Further, the “LD50 (DL50)” value in series [2] stood at 42.3 mM.

On to `CCCSc1ccc2nc(NC(=O)OC)[nH]c2c1` [albendazole], for which the EC50 in the series with C. elegans is 18.4 µM.

In the case of `CCc1ccc2oc(=O)cc(CN(C)c3ccccc3)c2c1` [11g], the 50% inhibitory concentration (IC50) in series [1] was < 10 µM; in series [1] (setting [5]), 8.2 ± 2.3 µM. Besides, the “GI (%) / percentage of growth inhibition (PGI)” value in series [1] (test concentration not given) was < 78.6%. Also, the “LD50 (DL50)” value in series [2] was 61.7 mM and 61.50 mM; in series [2] (listed as LaSOM 231) it was 61.55 mM.

Regarding `C=CC(C)(C)c1cc2cc3c(cc2oc1=O)O[C@H](C(C)(C)O)C3` [Chalepin], the 50% inhibitory concentration (IC50) in the series on T. cruzi was 64 µM.

With `O=C(Cn1ccnc1[N+](=O)[O-])NCc1ccccc1` [Benznidazole], the “IC50 compared with Nifurtimox” value in series [3] was “very similar IC50 values”.

With `CCc1ccc2oc(=O)cc(CN(C)c3ccc(Cl)cc3)c2c1` [11h], the “concentrations with significant reduction of body area compared with the control” value in series [4] was determined as 50000 µM. The IC50 in series [1] was < 10 µM; in series [1] (setting [5]), 6.4 ± 1 µM. Further, the “LD50 (DL50)” value in series [2] is 73.4 mM and 70.81 mM.

Consider Soulamarin, for which, in the series with Trypanosoma cruzi, the IC50 was 210 µM.
